Among the data in BindingDB's records for doi:10.1016/j.bmcl.2007.07.011 (Bristol Myers Squibb, 2007) are IC50 values, retold here.

pIC50: −log10 of the molar value.

This test addresses T1, Polyunsaturated fatty acid lipoxygenase ALOX15 (Oryctolagus cuniculus, UniProt P12530).
T1 sequence (P12530 whole entry): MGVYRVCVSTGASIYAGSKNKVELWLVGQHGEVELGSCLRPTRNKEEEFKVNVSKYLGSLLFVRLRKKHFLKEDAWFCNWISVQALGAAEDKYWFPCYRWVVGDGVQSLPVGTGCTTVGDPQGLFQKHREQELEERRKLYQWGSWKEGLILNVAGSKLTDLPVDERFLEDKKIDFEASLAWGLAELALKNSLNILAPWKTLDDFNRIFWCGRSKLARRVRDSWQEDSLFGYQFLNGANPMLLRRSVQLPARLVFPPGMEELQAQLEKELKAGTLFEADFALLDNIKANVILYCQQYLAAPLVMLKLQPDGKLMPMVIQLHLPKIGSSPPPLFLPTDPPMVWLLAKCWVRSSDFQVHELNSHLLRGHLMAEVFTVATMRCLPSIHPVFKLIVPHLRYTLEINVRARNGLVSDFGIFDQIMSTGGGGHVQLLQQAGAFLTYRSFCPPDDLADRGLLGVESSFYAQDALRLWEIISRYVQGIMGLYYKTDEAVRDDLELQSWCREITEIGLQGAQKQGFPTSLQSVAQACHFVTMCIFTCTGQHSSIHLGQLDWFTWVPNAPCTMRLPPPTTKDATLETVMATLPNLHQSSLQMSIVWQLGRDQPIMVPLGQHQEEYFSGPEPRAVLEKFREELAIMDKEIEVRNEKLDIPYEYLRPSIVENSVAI
In words: Enzyme Inhibition Assay. Here is the method:
The inhibitory activity of the compounds against purified 15-LO enzyme was determined using a standard colorimetric assay in which the lipid hydroperoxide product (13-hydroperoxyoctadecadienoic acid) oxidizes Fe2+. The Fe3+ forms a chromophore with xylenol orange that absorbs strongly at 560 nm.

For orientation: pIC50 means the negative decadic logarithm of the IC50, by convention in mol/L. A high value points to a small IC50. For the compound `CCCCCc1ccc(S(=O)(=O)NCCc2nc(-c3ccc(Cl)cc3)[nH]c2-c2ccc(OC)cc2)cc1` [N-{2-[2-(4-chlorophenyl)-5-(4-methoxyphenyl)-1H-imidazol-4-yl]ethyl}-4-pentylbenzene-1-sulfonamide], the negative-log IC50 (pIC50) is 6.68.

On to `COc1ccc(-c2nc(-c3cccs3)[nH]c2CCNS(=O)(=O)N(C)[C@@H]2CCN(c3ccc(Cl)c(Cl)c3)C2)cc1` [{[(3R)-1-(3,4-dichlorophenyl)pyrrolidin-3-yl](methyl)sulfamoyl}({2-[5-(4-methoxyphenyl)-2-(thiophen-2-yl)-1H-imidazol-4-yl]ethyl})amine], for which the negative-log IC50 (pIC50) is 7.96.
